The values that follow come from US11427567B2, “Imidazolyl pyrimidinylamine compounds as CDK2 inhibitors” (Incyte Corporation, priority 2019, dated 2022).

This assay deals with CDK2/Cyclin E1 (Homo sapiens (Human), UniProt P24941). In words: CDK2/Cyclin E1 HTRF enzyme activity assay (Example A). The assay is classed as biochemical. The settings on record: 1 mM ATP. Here is the method:
Assays were conducted in white 384-well polystyrene plates in a final reaction volume of 8 μL. […] HTRF signals were read after 1 hour at room temperature on a PHERAstar FS plate reader (BMG Labtech). Data was analyzed with IDBS XLFit and GraphPad Prism 5.0 software using a three or four parameter dose response curve to determine IC50 for each compound.
In the case of `C[C@@]1(O)CCN(Cc2cccc(-n3cnc(-c4nc(NC5CCN(S(C)(=O)=O)CC5)ncc4C(F)(F)F)c3)c2C(F)(F)F)C1` [Example 381, (R)-3-Methyl-1-(3-(4-(2-((1-(methylsulfonyl)piperidin-4-yl)amino)-5-(trifluoromethyl)pyrimi-din-4-yl)-1H-imidazol-1-yl)-2-(trifluoromethyl)benzyl) pyrrolidin-3-ol], the IC50 is ≤ 50 nM. For the compound `CCN(C)Cc1ccc(-n2cc(-c3nc(NC4CCN(S(C)(=O)=O)CC4)ncc3C(F)(F)F)nc2C)c(F)c1` [Example 358, 4-(1-(4-((Ethyl(methyl)amino)methyl)-2-fluorophenyl)-2-methyl-1H-imidazol-4-yl)-N-(1-(methylsulfonyl)piperidin-4-yl)-5-(trifluoromethyl)pyrimidin-2-amine], the IC50 was ≤ 50 nM. In the case of `CS(=O)(=O)N1CCC(Nc2ncc(C(F)(F)F)c(-c3cn(-c4cccc(CN5CC(C#N)C5)c4C(F)(F)F)cn3)n2)CC1` [Example 470, 1-(3-(4-(2-((1-(Methylsulfonyl)piperidin-4-yl)amino)-5-(trifluoromethyl)pyrimidin-4-yl)-1H-imidazol-1-yl)-2-(trifluoromethyl)benzyl)azetidine-3-carbonitrile], the IC50 is ≤ 50 nM. Then `CS(=O)(=O)N1CCC(Nc2ncc(C(F)(F)F)c(-c3cn(-c4ccc(CN5C6COCC5C6)cc4Cl)cn3)n2)CC1` [Example 214, 4-(1-(4-((3-Oxa-6-azabicyclo[3.1.1]-heptan-6-yl)methyl)-2-chlorophenyl)-1H-imidazol-4-yl)-N-(1-(methylsulfonyl)-piperidin-4-yl)-5-(trifluoromethyl)-pyrimidin-2-amine], with ≤ 50 nM. `Cc1nc(-c2nc(NC3CCN(S(C)(=O)=O)CC3)ncc2C#N)cn1-c1ccc(C#N)cc1F` [Example 290, 4-(1-(4-Cyano-2-fluorophenyl)-2-methyl-1H-imidazol-4-yl)-2-((1-(methylsulfonyl)piperidin-4-yl)amino)pyrimidine-5-carbonitrile]: the IC50 was ≤ 50 nM. Consider `CC(C)NCCc1cccc(-n2cnc(-c3nc(NC4CCN(S(C)(=O)=O)CC4)ncc3C(F)(F)F)c2)c1Cl` [Example 465, 4-(1-(2-Chloro-3-(2-(isopropylamino)ethyl)phenyl)-1H-imidazol-4-yl)-N-(1-(methylsulfonyl)piperidin-4-yl)-5-(trifluoromethyl)pyrimidin-2-amine], for which the IC50 was ≤ 50 nM.

As for `Cn1cncc1-c1ccc(-n2cnc(-c3nc(NC4CCN(S(C)(=O)=O)CC4)ncc3C(F)(F)F)c2)c(Cl)c1` [Example 124, 4-(1-(2-Chloro-4-(1-methyl-1H-imidazol-5-yl)phenyl)-1H-imidazol-4-yl)-N-(1-(methylsulfonyl)-piperidin-4-yl)-5-(trifluoromethyl)-pyrimidin-2-amine], the IC50 was ≤ 50 nM.

`CS(=O)(=O)N1CCC(Nc2ncc(C(F)(F)F)c(-c3cn(-c4ccc(N5CC[C@@H](O)C5)cc4Cl)cn3)n2)CC1` [Example 138, (R)-1-(3-Chloro-4-(4-(2-((1-(methylsulfonyl)piperidin-4-yl)amino)-5-(trifluoromethyl)pyrimidin-4-yl)-1H-imidazol-1-yl)phenyl)pyrrolidin-3-ol]: the IC50 was ≤ 50 nM. For `CS(=O)(=O)N1CC[C@H](Nc2ncc(C(F)(F)F)c(-c3cn(-c4ccccc4C#N)cn3)n2)[C@H](F)C1` [Example 472, 2-(4-(2-(((3R,4S)-3-Fluoro-1-(methylsulfonyl)piperidin-4-yl)amino)-5-(trifluoromethyl)pyrimidin-4-yl)-1H-imidazol-1-yl)benzonitrile], the half-inhibitory concentration (IC50) is ≤ 50 nM. For the compound `COc1nccc(-n2cnc(-c3nc(NC4CCN(S(C)(=O)=O)CC4)ncc3C(F)(F)F)c2)c1Cl` [Example 295, 4-(1-(3-Chloro-2-methoxypyridin-4-yl)-1H-imidazol-4-yl)-N-(1-(methylsulfonyl)piperidin-4-yl)-5-(trifluoromethyl)pyrimidin-2-amine], the half-maximal inhibitory concentration (IC50) is ≤ 50 nM.

As for `Cc1nc(-c2nc(NC3CCN(S(C)(=O)=O)CC3)ncc2C(F)(F)F)cn1-c1ccnc(C#N)c1F` [Example 309, 3-Fluoro-4-(2-methyl-4-(2-((1-(methylsulfonyl)piperidin-4-yl)amino)-5-(trifluoromethyl)pyrimidin-4-yl)-1H-imidazol-1-yl)picolinonitrile], the IC50 is ≤ 50 nM. `Cc1nc(-c2nc(NC3CCN(S(C)(=O)=O)CC3)ncc2C(F)(F)F)cn1-c1ccc(CCCN2CCC2)cc1F` [Example 459, 4-(1-(4-(3-(Azetidin-1-yl)propyl)-2-fluorophenyl)-2-methyl-1H-imidazol-4-yl)-N-(1-(methylsulfonyl)piperidin-4-yl)-5-(trifluoromethyl)pyrimidin-2-amine]: the IC50 is ≤ 50 nM. As to `Cn1cnc(S(=O)(=O)N2CCC(Nc3ncc(C(F)(F)F)c(-c4cn(-c5c(Cl)cccc5C#N)cn4)n3)CC2)c1` [Example 5, 3-Chloro-2-(4-(2-((1-((1-methyl-1H-imidazol-4-yl)sulfonyl)piperidin-4-yl)amino)-5-(trifluoromethyl)pyrimidin-4-yl)-1H-imidazol-1-yl)benzonitrile], the IC50 is ≤ 50 nM. As to `CC(C)NCc1cc(F)c(-n2cnc(-c3nc(N[C@@H]4CCN(S(C)(=O)=O)C[C@H]4F)ncc3C(F)(F)F)c2)c(Cl)c1` [Example 405, 4-(1-(2-Chloro-6-fluoro-4-((isopropylamino)methyl)phenyl)-1H-imidazol-4-yl)-N-((3R,4R)-3-fluoro-1-(methylsulfonyl)piperidin-4-yl)-5-(trifluoromethyl)pyrimidin-2-amine], the half-maximal inhibitory concentration (IC50) was ≤ 50 nM. Regarding `COc1nccc(-n2cnc(-c3nc(N[C@H]4CCN(S(C)(=O)=O)C[C@H]4F)ncc3C(F)(F)F)c2)c1C#N` [Example 297, 4-(4-(2-(((3R,4S)-3-Fluoro-1-(methylsulfonyl)piperidin-4-yl)amino)-5-(trifluoromethyl)pyrimidin-4-yl)-1H-imidazol-1-yl)-2-methoxynicotinonitrile], the IC50 was ≤ 50 nM. On to `CS(=O)(=O)N1CCC(Nc2ncc(C(F)(F)F)c(-c3cn(-c4c(F)cccc4C#N)cn3)n2)CC1` [Example 294, 3-Fluoro-2-(4-(2-((1-(methylsulfonyl)piperidin-4-yl)amino)-5-(trifluoromethyl)pyrimidin-4-yl)-1H-imidazol-1-yl)benzonitrile], for which the IC50 is ≤ 50 nM. Turning to `Cc1nccc(-n2cnc(-c3nc(NC4CCN(S(C)(=O)=O)CC4)ncc3C(F)(F)F)c2)c1Cl` [Example 296, 4-(1-(3-Chloro-2-methylpyridin-4-yl)-1H-imidazol-4-yl)-N-(1-(methylsulfonyl)piperidin-4-yl)-5-(trifluoromethyl)pyrimidin-2-amine], the IC50 was ≤ 50 nM. With `Cc1nc(-c2nc(N[C@H]3CCN(S(C)(=O)=O)C[C@H]3F)ncc2C(F)(F)F)cn1-c1ccc(CN2CCCC2)cc1F` [Example 407, N-((3R,4S)-3-Fluoro-1-(methylsulfonyl)piperidin-4-yl)-4-(1-(2-fluoro-4-(pyrrolidin-1-ylmethyl)phenyl)-2-methyl-1H-imidazol-4-yl)-5-(trifluoromethyl)pyrimidin-2-amine], the IC50 was ≤ 50 nM. In the case of `CCS(=O)(=O)N1CCC(Nc2ncc(C(F)(F)F)c(-c3cn(CC(C)(C)O)cn3)n2)CC1` [Example 324, 1-(4-(2-((1-(Ethylsulfonyl)piperidin-4-yl)amino)-5-(trifluoromethyl)pyrimidin-4-yl)-1H-imidazol-1-yl)-2-methylpropan-2-ol], the half-inhibitory concentration (IC50) was ≤ 50 nM. With `CN(C)CCOc1ccc(-n2cnc(-c3nc(N[C@H]4CCN(S(C)(=O)=O)C[C@H]4F)ncc3C(F)(F)F)c2)c(C#N)n1` [Example 53, 6-(2-(Dimethylamino)ethoxy)-3-(4-(2-(((3R,4S)-3-fluoro-1-(methylsulfonyl)piperidin-4-yl)amino)-5-(trifluoromethyl)pyrimidin-4-yl)-1H-imidazol-1-yl)picolinonitrile], the IC50 was ≤ 50 nM. In the case of `C[C@@]1(O)CCN(Cc2cc(F)c(-n3cnc(-c4nc(N[C@@H]5CCN(S(C)(=O)=O)C[C@H]5F)ncc4C(F)(F)F)c3)c(Cl)c2)C1` [Example 402, (R)-1-(3-Chloro-5-fluoro-4-(4-(2-(((3R,4R)-3-fluoro-1-(methylsulfonyl)piperidin-4-yl)amino)-5-(trifluoromethyl)pyrimidin-4-yl)-1H-imidazol-1-yl)benzyl)-3-methylpyrrolidin-3-ol] it was ≤ 50 nM. Regarding `CN1CC(c2ccc(-n3cnc(-c4nc(NC5CCN(S(C)(=O)=O)CC5)ncc4C(F)(F)F)c3)c(C#N)c2)C1` [Example 428, 5-(1-Methylazetidin-3-yl)-2-(4-(2-((1-(methylsulfonyl)piperidin-4-yl)amino)-5-(trifluoromethyl)pyrimidin-4-yl)-1H-imidazol-1-yl)benzonitrile], the 50% inhibitory concentration (IC50) is ≤ 50 nM. For the compound `CS(=O)(=O)N1CCC(Nc2ncc(C(F)(F)F)c(-c3ncn(-c4ccc(C#N)cc4Cl)c3Cl)n2)CC1` [Example 170, 3-Chloro-4-(5-chloro-4-(2-((1-(methylsulfonyl)piperidin-4-yl)amino)-5-(trifluoromethyl)pyrimidin-4-yl)-1H-imidazol-1-yl)benzonitrile], the IC50 was ≤ 50 nM.

Take `Cc1nc(-c2nc(NC3CCN(S(C)(=O)=O)CC3)ncc2C(F)(F)F)cn1-c1ccc(N2CC3(CCN(C)CC3)C2)cc1F` [Example 104, 4-(1-(2-Fluoro-4-(7-methyl-2,7-diazaspiro[3.5]-nonan-2-yl)phenyl)-2-methyl-1H-imidazol-4-yl)-N-(1-(methylsulfonyl)-piperidin-4-yl)-5-(trifluoromethyl)-pyrimidin-2-amine]: the IC50 is ≤ 50 nM. Turning to `CC(C)N1CC(c2ccc(-n3cnc(-c4nc(NC5CCN(S(C)(=O)=O)CC5)ncc4C(F)(F)F)c3)c(C#N)c2)C1` [Example 427, 5-(1-Isopropylazetidin-3-yl)-2-(4-(2-((1-(methylsulfonyl)piperidin-4-yl)amino)-5-(trifluoromethyl)pyrimidin-4-yl)-1H-imidazol-1-yl)benzonitrile], the IC50 was ≤ 50 nM.
